Measured values reported in patent publication US11370794B2, “Toll-like receptor antagonist compounds and methods of use” (Dynavax Technologies Corporation, priority 2016, dated 2022).

Tests used:
human TLR8 = target: T1, human TLR8 (Homo sapiens, UniProt Q9NR97); test: Inhibition of human TLR8 in human monocytes (TNF-alpha / IL-1 beta ELISA); format: cell-based; details: human monocytes, agonist ORN8L 100 μg/mL, TNF-alpha readout, 24 hours; read-out: Human TLR8 IC50 TNF-a
T1 construct: endogenous in cells; host or cells: primary human monocytes (CD14 microbeads) from buffy coats of healthy donors
T1 sequence (Q9NR97 27-1041): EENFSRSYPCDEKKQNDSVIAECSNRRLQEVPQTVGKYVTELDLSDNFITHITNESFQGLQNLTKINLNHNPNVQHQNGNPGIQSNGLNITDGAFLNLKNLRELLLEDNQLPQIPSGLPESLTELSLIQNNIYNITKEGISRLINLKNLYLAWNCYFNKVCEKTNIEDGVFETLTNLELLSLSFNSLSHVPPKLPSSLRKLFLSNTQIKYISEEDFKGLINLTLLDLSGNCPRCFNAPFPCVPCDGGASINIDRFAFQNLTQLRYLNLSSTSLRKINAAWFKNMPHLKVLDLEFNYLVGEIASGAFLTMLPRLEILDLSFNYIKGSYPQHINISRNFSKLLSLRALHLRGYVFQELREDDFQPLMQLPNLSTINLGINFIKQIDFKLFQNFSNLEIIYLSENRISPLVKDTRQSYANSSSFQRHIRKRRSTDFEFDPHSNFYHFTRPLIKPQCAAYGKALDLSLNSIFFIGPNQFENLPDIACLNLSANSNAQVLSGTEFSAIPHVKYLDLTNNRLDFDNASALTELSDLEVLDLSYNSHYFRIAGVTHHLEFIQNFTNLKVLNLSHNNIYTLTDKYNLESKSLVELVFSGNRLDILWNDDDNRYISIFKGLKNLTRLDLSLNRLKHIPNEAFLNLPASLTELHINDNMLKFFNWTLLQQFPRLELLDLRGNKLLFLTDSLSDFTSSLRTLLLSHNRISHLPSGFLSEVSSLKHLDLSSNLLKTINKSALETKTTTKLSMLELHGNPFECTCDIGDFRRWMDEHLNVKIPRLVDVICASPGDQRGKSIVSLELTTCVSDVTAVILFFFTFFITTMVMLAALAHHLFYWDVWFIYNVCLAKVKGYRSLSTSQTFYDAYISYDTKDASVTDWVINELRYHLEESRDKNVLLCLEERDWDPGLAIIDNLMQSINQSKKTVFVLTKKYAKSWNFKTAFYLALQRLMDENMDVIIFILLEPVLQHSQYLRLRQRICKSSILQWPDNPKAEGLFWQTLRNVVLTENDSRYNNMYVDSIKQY
In short: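 Primary human monocytes from donor buffy coats (~200,000 cells/well) given serially diluted compound, then ORN8L RNA oligonucleotide agonist at 100 μg/mL final. After 24 h at 37 °C, supernatant TNF-alpha and/or IL-1 beta measured by ELISA; IC50 from the concentration-response of cytokine release.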

human TLR9 = target: T2, human TLR9 (Homo sapiens, UniProt Q9NR96); test: Inhibition of human TLR9 in human B cells (IL-6 ELISA); format: cell-based; details: human B cells, agonist 1018 ISS 1 μM, IL-6 readout, 48 hours; range about 0.01 to 10 μM; read-out: Human TLR9 IC50
T2 construct: endogenous in cells; host or cells: primary human B cells (CD19 microbeads) from buffy coats of healthy donors
T2 sequence (Q9NR96 26-1032): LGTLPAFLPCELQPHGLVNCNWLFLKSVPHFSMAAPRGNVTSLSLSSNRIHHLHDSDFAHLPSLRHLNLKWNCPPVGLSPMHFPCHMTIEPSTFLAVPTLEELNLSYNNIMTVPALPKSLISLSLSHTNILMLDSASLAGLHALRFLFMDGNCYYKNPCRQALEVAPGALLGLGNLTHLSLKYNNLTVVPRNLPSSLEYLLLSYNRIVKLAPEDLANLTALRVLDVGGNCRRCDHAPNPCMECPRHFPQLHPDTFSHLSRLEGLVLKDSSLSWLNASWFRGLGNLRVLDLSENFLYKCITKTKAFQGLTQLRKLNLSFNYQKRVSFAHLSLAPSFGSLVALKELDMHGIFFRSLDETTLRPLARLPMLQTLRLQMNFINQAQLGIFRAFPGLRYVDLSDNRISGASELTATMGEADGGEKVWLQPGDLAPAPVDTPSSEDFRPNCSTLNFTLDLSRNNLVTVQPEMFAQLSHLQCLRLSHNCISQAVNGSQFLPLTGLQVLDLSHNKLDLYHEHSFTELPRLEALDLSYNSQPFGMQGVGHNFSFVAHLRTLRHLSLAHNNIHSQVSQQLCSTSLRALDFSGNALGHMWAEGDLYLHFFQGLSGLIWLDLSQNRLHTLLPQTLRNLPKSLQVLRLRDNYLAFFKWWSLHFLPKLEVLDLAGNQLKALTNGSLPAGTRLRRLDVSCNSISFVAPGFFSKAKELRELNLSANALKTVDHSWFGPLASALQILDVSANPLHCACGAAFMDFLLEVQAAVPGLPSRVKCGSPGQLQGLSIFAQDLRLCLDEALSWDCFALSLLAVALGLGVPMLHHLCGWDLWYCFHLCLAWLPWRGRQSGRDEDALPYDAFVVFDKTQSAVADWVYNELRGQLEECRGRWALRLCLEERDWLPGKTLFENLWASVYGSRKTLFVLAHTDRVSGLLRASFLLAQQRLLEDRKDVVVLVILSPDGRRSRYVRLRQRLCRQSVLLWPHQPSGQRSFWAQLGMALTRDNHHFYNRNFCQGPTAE
In short: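 Primary human B cells (CD19-isolated from donor buffy coats), ~300,000 per well, treated with compound (about 0.01–10 μM, some 0.001–30 μM) then 1 μM CpG oligonucleotide 1018 ISS. After 48 hours at 37° C, supernatant IL-6 measured by ELISA; IC50 from concentration-response of TLR9-dependent activity.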

Cc1ccc(-n2nc3c(N4CCC(C(=O)NCCN(C)C)CC4)nnc(C)c3c2C(F)(F)F)cc1 [compound 63, N-(2-(dimethylamino)ethyl)-1-(4-methyl-2-(p-tolyl)-3-(trifluoromethyl)-2H-pyrazolo[3,4-d]pyridazin-7-yl)piperidine-4-carboxamide]
IC50 (human TLR8): ≥ 20 µM
IC50 (human TLR9): 5.58 µM

Cc1ccc(-n2nc3c(N4CCCC(C(=O)NCCN(C)C)C4)nnc(C)c3c2C)cc1 (stereo not drawn) [45x, 1-(3,4-dimethyl-2-(p-tolyl)-2H-pyrazolo[3,4-d]pyridazin-7-yl)-N-(2-(dimethylamino)ethyl)piperidine-3-carboxamide]
IC50 (human TLR8): ≥ 20 µM
IC50 (human TLR9): 0.009 µM

Cc1ccc(-n2nc3c(N4CCC(C(=O)NCCCN(C)C)CC4)nnc(-c4ccccc4)c3c2C)cc1 [compound 35, N-(3-(dimethylamino)propyl)-1-(3-methyl-4-phenyl-2-(p-tolyl)-2H-pyrazolo[3,4-d]pyridazin-7-yl)piperidine-4-carboxamide]
IC50 (human TLR8): ≥ 20 µM
IC50 (human TLR9): 3.71 µM
